Square brackets hold non-standard residues; d marks the D form. Peptide text beside a SMILES is read from it. * marks the point of attachment. Sta = CC(C)C[C@H](N)[C@@H](O)CC(=O)O; Isovaleryl = CC(C)CC(=O)*
How the values were obtained:
Assay type in all cases: biochemical
[1] = tested on: exopeptidase (metalloproteinase activity) of Lucilia sericata ES; test: Leucine aminopeptide hydrolysis by Lucilia sericata ES
Excerpt: (§1) In addition to the predominant serine proteinase activity detected in the ES secretions of Lucilia sericata other less predominant activity is present. The presence of an aspartyl and metalloproteinase activity has been detected though no cysteinyl activity is shown. […] This inhibition reflects the presence of an exopeptidase with a metalloproteinase enzymic nature.

[2] = tested on: fibronectin, laminin and collagens I, III, IV and V; test: Degradation of ECM/wound components by larval ES secretions
[3] = tested on: Lucilia sericata ES serine proteinase activity; test: FITC-casein hydrolysis by Lucilia sericata ES at pH8 in the presence of PMSF/APMSF
Protocol: The activity of Lucilia sericata ES in FITC-casein hydrolysis at pH8 was investigated using different presentations of ES (0.25 μg) as follows:
The proteolytic activity of Lucilia sericata ES was inhibited following pre-incubation with the irreversible serine proteinase inhibitor PMSF. […] PMSF is dissolved in ethanol and the effect of the solvent on the activity of the ES was negligible. In contrast, approximately 50% of residual serine proteinase activity from ES was detected in the cases where the ES had been pre-incubated with the irreversible “trysin-like” specific inhibitor APMSF. Residual activity in the presence of APMSF indicates the presence of a chymotrypsin-like enzyme.

[4] = tested on: trypsin-like serine proteinase (aminobenzamidine elution peak) and flow-through proteinases of Lucilia sericata ES; test: Residual proteinase activity of aminobenzamidine agarose column fractions with APMSF
Protocol: The trypsin-like serine proteinase was purified by affinity chromatography of Lucilia sericata ES on aminobenzamidine agarose. The column matrix (1 ml) was equilibrated with 20 ml of 0.025M Tris-HCl buffer pH 8.0 containing 0.5M NaCl. The crude ES (0.5 ml, 70 μg/ml protein) was diluted with an equal volume of buffer before application to the column. Fractions (0.5 ml) were collected throughout the chromatography. After washing with 6.5 times column volume of buffer to remove unbound protein, the free aminobenzamidine ligand (2 ml 400 μM) was used to elicit the elution of bound material. Absorbance readings of the fractions at 280 nm was used to establish the positions of the unbound (flow-through) and bound peaks which were then collected for assay.
Aminobenzamidine agarose binds trypsin-like serine proteinases. Following application of larval enzyme secretions to the column, unbound material passed directly through and was collected as “flow-through” (peak I). The addition of free aminobenzamidine to the column buffer elicited elution of the bound proteinase (peak II). The unbound (flow-through) material contained proteinase activity unaffacted by APMSF (possibly including a a chrymotrypsin-like enzyme), whereas the activity in the aminobenzamidine elution peak was substantially abolished (80%) by APMSF, indicating purification of a trypsin-like serine proteinase activity.

[5] = tested on: chymotrypsin-like serine proteinase activity in Lucilia sericata ES; test: Suc-Ala-Ala-Phe-AMC hydrolysis by Lucilia sericata ES in the presence of APMSF and PMSF
Protocol: (§2) The activity of Lucilia sericata ES (0.25 μg) against Tosyl-Gly-Pro-Arg-AMC (a) and against Suc-Ala-Ala-Phe-AMC (b) in the presence of APMSF and PMSF was investigated using different presentations of ES as follows:
(b) • E. ES • F. ES pre-incubated with 0.2 mM APMSF • G. ES pre-incubated with 1 mM PMSF
(§3) The results for (a) reveal the “trypsin-like” serine proteinase activity present in Lucilia sericata ES. The hydrolysis of Tosyl-Glyc-Pro-Arg-AMC (selective for the serine proteinases thrombin and plasmin) was inhibited by 1 mM PMSF and 0.05 mM APMSF. […] The results provide further evidence of the presence in ES of two different sub-classes of serine proteinase.

[6] = tested on: trypsin-like serine proteinase activity in Lucilia sericata ES; test: Tosyl-Gly-Pro-Arg-AMC hydrolysis by Lucilia sericata ES in the presence of APMSF and PMSF
Protocol: as §2
(a) • A. ES • B. ES pre-incubated with 0.025 mM APMSF • C. ES pre-incubated with 0.05 mM APMSF • D. ES pre-incubated with 1 mM PMSF
as §3

[7] = Lipase activity of ES secretions; conditions: pre-incubated with the inhibitor
[8] = tested on: aspartyl activity of Lucilia sericata ES; test: Aspartyl proteinase activity of ES by FITC-casein hydrolysis at pH 5.0
Excerpt: as §1

[9] = ES (0.25 μg) pre-incubated with 0.2 mM inhibitor
[10] = ES (0.25 μg) pre-incubated with 1 mM inhibitor

Compound: c1cnc2c(c1)ccc1cccnc12 [1,10-phenanthroline]
- inhibition of leucine aminopeptide hydrolysis [1]: inhibited
- inhibition of the degradation of laminin and fibronectin by larval secretions [2]: not significantly

Compound: N=C(N)c1ccc(CS(=O)(=O)F)cc1 [APMSF, 4-(amidinophenyl) methane sulphonyl fluoride]
- activity (%) of ES in FITC-casein hydrolysis ([3]; ES (0.25 μg) pre-incubated with 0.04 mM inhibitor): 43.5%
- activity (%) of ES in FITC-casein hydrolysis ([3]; ES (0.25 μg) pre-incubated with 0.12 mM inhibitor): 47%
- activity (%) of ES in FITC-casein hydrolysis [3, 9]: 54%
- residual serine proteinase activity from ES ([3]; ES pre-incubated with APMSF, summary over the concentrations): approximately 50%
- activity abolished by inhibitor ([4]; aminobenzamidine elution peak (peak II)): 80%
- effect of inhibitor on proteinase activity ([4]; unbound (flow-through) material (peak I)): unaffacted
- inhibition of the degradation of laminin and fibronectin by larval secretions [2]: not significantly
- residual activity (%) against Suc-Ala-Ala-Phe-AMC [5, 9]: 86.8%
- residual activity (%) against Tosyl-Gly-Pro-Arg-AMC ([6]; ES (0.25 μg) pre-incubated with 0.025 mM inhibitor): 14.3%
- residual activity (%) against Tosyl-Gly-Pro-Arg-AMC ([6]; ES (0.25 μg) pre-incubated with 0.05 mM inhibitor): 3.6%

Compound: O=S(=O)(F)Cc1ccccc1 [PMSF, phenyl methanesulphonyl fluoride]
- activity (%) of ES in FITC-casein hydrolysis [3, 9]: 13.8%
- activity (%) of ES in FITC-casein hydrolysis ([3]; ES (0.25 μg) pre-incubated with 0.6 mM inhibitor): 18%
- inhibition of the degradation of laminin and fibronectin by larval secretions [2]: inhibited
- residual activity (%) against Suc-Ala-Ala-Phe-AMC [5, 10]: 1.3%
- residual activity (%) against Tosyl-Gly-Pro-Arg-AMC [6, 10]: 0%
- lipase activity of ES secretions pre-incubated with inhibitor [7]: not detected

Compound: CC(C)CC(=O)N[C@H](C(=O)N[C@H](C(=O)N[C@@H](CC(C)C)[C@@H](O)CC(=O)N[C@@H](C)C(=O)N[C@@H](CC(C)C)[C@@H](O)CC(=O)O)C(C)C)C(C)C [pepstatin A] (Isovaleryl-VV[Sta]A[Sta]-OH)
- inhibition of aspartyl activity [8]: successfully inhibited
